Laboratory results from the NIST ThermoML archive (doi:10.1007/s10765-010-0766-0).
Several values for one entry are separate records, joined by “and”; a condition that tells them apart may be missing. Equal values may be shown once. Numbers after ± are expanded uncertainties.

Assay: molar heat capacity at constant volume
Conditions: Liquid, Vacuum adiabatic calorimetry

FC(F)C(F)(F)OCC(F)(F)F [2,2,2-trifluoroethyl 1,1,2,2-tetrafluoroethyl ether]
molar heat capacity at constant volume (279.15 K, 5663 kPa): 189.85 ± 8.6 J/K/mol
molar heat capacity at constant volume (280.15 K, 6663 kPa): 187.85 ± 8.4 J/K/mol
molar heat capacity at constant volume (280.15 K, 6673 kPa): 191.45 ± 8.6 J/K/mol
molar heat capacity at constant volume (281.15 K, 7673 kPa): 194.25 ± 8.8 J/K/mol
molar heat capacity at constant volume (281.15 K, 7685 kPa): 189.25 ± 8.6 J/K/mol
molar heat capacity at constant volume (282.15 K, 8685 kPa): 190.65 ± 8.6 J/K/mol
molar heat capacity at constant volume (282.15 K, 8696 kPa): 193.65 ± 8.8 J/K/mol
molar heat capacity at constant volume (283.15 K, 9695 kPa): 191.85 ± 8.6 J/K/mol
molar heat capacity at constant volume (283.15 K, 9705 kPa): 192.45 ± 8.6 J/K/mol
molar heat capacity at constant volume (284.15 K, 10704 kPa): 193.45 ± 8.8 J/K/mol
molar heat capacity at constant volume (284.15 K, 10712 kPa): 191.85 ± 8.6 J/K/mol
molar heat capacity at constant volume (285.15 K, 11710 kPa): 191.65 ± 8.6 J/K/mol
molar heat capacity at constant volume (285.15 K, 11717 kPa): 193.65 ± 8.8 J/K/mol
molar heat capacity at constant volume (286.15 K, 12714 kPa): 193.85 ± 8.8 J/K/mol
molar heat capacity at constant volume (286.15 K, 12720 kPa): 191.65 ± 8.6 J/K/mol
molar heat capacity at constant volume (287.15 K, 13718 kPa): 193.05 ± 8.6 J/K/mol
molar heat capacity at constant volume (287.15 K, 13722 kPa): 194.65 ± 8.8 J/K/mol
molar heat capacity at constant volume (288.15 K, 14719 kPa): 192.25 ± 8.6 J/K/mol
molar heat capacity at constant volume (288.15 K, 14722 kPa): 193.05 ± 8.6 J/K/mol
molar heat capacity at constant volume (289.15 K, 15719 kPa): 193.65 ± 8.8 J/K/mol
molar heat capacity at constant volume (289.15 K, 15720 kPa): 193.25 ± 8.6 J/K/mol
molar heat capacity at constant volume (290.15 K, 16716 kPa): 193.45 ± 8.8 J/K/mol
molar heat capacity at constant volume (290.15 K, 16717 kPa): 195.85 ± 8.8 J/K/mol
molar heat capacity at constant volume (291.15 K, 17711 kPa): 193.65 ± 8.8 J/K/mol
molar heat capacity at constant volume (291.15 K, 17712 kPa): 194.45 ± 8.8 J/K/mol
molar heat capacity at constant volume (292.15 K, 18703 kPa): 193.05 ± 8.6 J/K/mol
molar heat capacity at constant volume (292.15 K, 18704 kPa): 193.05 ± 8.6 J/K/mol
molar heat capacity at constant volume (293.15 K, 19694 kPa): 193.45 ± 8.8 J/K/mol and 195.45 ± 8.8 J/K/mol
molar heat capacity at constant volume (294.15 K, 20683 kPa): 194.85 ± 8.8 J/K/mol and 193.25 ± 8.6 J/K/mol
molar heat capacity at constant volume (295.15 K, 21669 kPa): 192.45 ± 8.6 J/K/mol and 193.65 ± 8.8 J/K/mol
molar heat capacity at constant volume (296.15 K, 22653 kPa): 195.05 ± 8.8 J/K/mol
molar heat capacity at constant volume (296.15 K, 22654 kPa): 195.85 ± 8.8 J/K/mol
molar heat capacity at constant volume (297.15 K, 23636 kPa): 193.85 ± 8.8 J/K/mol and 194.45 ± 8.8 J/K/mol
molar heat capacity at constant volume (298.15 K, 24616 kPa): 193.85 ± 8.8 J/K/mol
molar heat capacity at constant volume (298.15 K, 24617 kPa): 193.85 ± 8.8 J/K/mol
molar heat capacity at constant volume (299.15 K, 25595 kPa): 195.45 ± 8.8 J/K/mol
molar heat capacity at constant volume (299.15 K, 25596 kPa): 196.45 ± 8.8 J/K/mol
molar heat capacity at constant volume (300.15 K, 26572 kPa): 194.05 ± 8.8 J/K/mol
molar heat capacity at constant volume (300.15 K, 26573 kPa): 193.85 ± 8.8 J/K/mol
molar heat capacity at constant volume (301.15 K, 6294 kPa): 197.05 ± 8.8 J/K/mol
molar heat capacity at constant volume (301.15 K, 27548 kPa): 196.25 ± 8.8 J/K/mol and 195.85 ± 8.8 J/K/mol
molar heat capacity at constant volume (302.15 K, 7147 kPa): 196.45 ± 8.8 J/K/mol
molar heat capacity at constant volume (302.15 K, 28521 kPa): 195.05 ± 8.8 J/K/mol
molar heat capacity at constant volume (302.15 K, 28522 kPa): 193.65 ± 8.8 J/K/mol
molar heat capacity at constant volume (303.15 K, 8010 kPa): 194.05 ± 8.8 J/K/mol
molar heat capacity at constant volume (303.15 K, 8015 kPa): 197.65 ± 8.8 J/K/mol
molar heat capacity at constant volume (303.15 K, 29493 kPa): 196.65 ± 8.8 J/K/mol and 196.85 ± 8.8 J/K/mol
molar heat capacity at constant volume (304.15 K, 8873 kPa): 195.25 ± 8.8 J/K/mol
molar heat capacity at constant volume (304.15 K, 8874 kPa): 194.45 ± 8.8 J/K/mol
molar heat capacity at constant volume (305.15 K, 9734 kPa): 197.65 ± 8.8 J/K/mol and 197.85 ± 9 J/K/mol
molar heat capacity at constant volume (306.15 K, 10592 kPa): 195.45 ± 8.8 J/K/mol
molar heat capacity at constant volume (306.15 K, 10594 kPa): 196.05 ± 8.8 J/K/mol
molar heat capacity at constant volume (307.15 K, 11449 kPa): 197.25 ± 8.8 J/K/mol
molar heat capacity at constant volume (307.15 K, 11452 kPa): 197.05 ± 8.8 J/K/mol
molar heat capacity at constant volume (308.15 K, 12303 kPa): 195.25 ± 8.8 J/K/mol
molar heat capacity at constant volume (308.15 K, 12308 kPa): 196.25 ± 8.8 J/K/mol
molar heat capacity at constant volume (309.15 K, 13157 kPa): 197.45 ± 8.8 J/K/mol
molar heat capacity at constant volume (309.15 K, 13163 kPa): 197.45 ± 8.8 J/K/mol
molar heat capacity at constant volume (310.15 K, 14009 kPa): 195.65 ± 8.8 J/K/mol
molar heat capacity at constant volume (310.15 K, 14016 kPa): 196.45 ± 8.8 J/K/mol
molar heat capacity at constant volume (311.15 K, 14859 kPa): 196.45 ± 8.8 J/K/mol
molar heat capacity at constant volume (311.15 K, 14867 kPa): 197.05 ± 8.8 J/K/mol
molar heat capacity at constant volume (312.15 K, 15708 kPa): 198.05 ± 9 J/K/mol
molar heat capacity at constant volume (312.15 K, 15718 kPa): 197.25 ± 8.8 J/K/mol
molar heat capacity at constant volume (313.15 K, 16557 kPa): 196.85 ± 8.8 J/K/mol
molar heat capacity at constant volume (313.15 K, 16566 kPa): 197.05 ± 8.8 J/K/mol
molar heat capacity at constant volume (314.15 K, 17405 kPa): 198.05 ± 9 J/K/mol
molar heat capacity at constant volume (314.15 K, 17414 kPa): 196.85 ± 8.8 J/K/mol
molar heat capacity at constant volume (315.15 K, 18252 kPa): 199.05 ± 9 J/K/mol
molar heat capacity at constant volume (315.15 K, 18260 kPa): 196.45 ± 8.8 J/K/mol
molar heat capacity at constant volume (316.15 K, 19097 kPa): 197.45 ± 8.8 J/K/mol
molar heat capacity at constant volume (316.15 K, 19105 kPa): 197.85 ± 9 J/K/mol
molar heat capacity at constant volume (317.15 K, 19942 kPa): 200.86 ± 9 J/K/mol
molar heat capacity at constant volume (317.15 K, 19949 kPa): 198.45 ± 9 J/K/mol
molar heat capacity at constant volume (318.15 K, 20785 kPa): 198.25 ± 9 J/K/mol
molar heat capacity at constant volume (318.15 K, 20791 kPa): 198.65 ± 9 J/K/mol
molar heat capacity at constant volume (319.15 K, 21626 kPa): 197.85 ± 9 J/K/mol
molar heat capacity at constant volume (319.15 K, 21632 kPa): 197.65 ± 8.8 J/K/mol
molar heat capacity at constant volume (320.15 K, 22467 kPa): 200.45 ± 9 J/K/mol
molar heat capacity at constant volume (320.15 K, 22471 kPa): 199.25 ± 9 J/K/mol
molar heat capacity at constant volume (321.15 K, 23306 kPa): 199.25 ± 9 J/K/mol
molar heat capacity at constant volume (321.15 K, 23311 kPa): 198.45 ± 9 J/K/mol
molar heat capacity at constant volume (322.15 K, 24144 kPa): 199.05 ± 9 J/K/mol
molar heat capacity at constant volume (322.15 K, 24148 kPa): 198.05 ± 9 J/K/mol
molar heat capacity at constant volume (323.15 K, 24980 kPa): 199.65 ± 9 J/K/mol
molar heat capacity at constant volume (323.15 K, 24983 kPa): 199.05 ± 9 J/K/mol
molar heat capacity at constant volume (324.15 K, 25816 kPa): 200.66 ± 9 J/K/mol
molar heat capacity at constant volume (324.15 K, 25819 kPa): 201.06 ± 9 J/K/mol
molar heat capacity at constant volume (325.15 K, 26650 kPa): 199.05 ± 9 J/K/mol
molar heat capacity at constant volume (325.15 K, 26653 kPa): 197.05 ± 8.8 J/K/mol
molar heat capacity at constant volume (326.15 K, 27482 kPa): 200.86 ± 9 J/K/mol
molar heat capacity at constant volume (326.15 K, 27484 kPa): 199.85 ± 9 J/K/mol
molar heat capacity at constant volume (327.15 K, 28313 kPa): 199.65 ± 9 J/K/mol
molar heat capacity at constant volume (327.15 K, 28315 kPa): 198.65 ± 9 J/K/mol
molar heat capacity at constant volume (328.15 K, 29144 kPa): 200.66 ± 9 J/K/mol
molar heat capacity at constant volume (328.15 K, 29145 kPa): 201.86 ± 9 J/K/mol
molar heat capacity at constant volume (329.15 K, 7678 kPa): 198.25 ± 9 J/K/mol
molar heat capacity at constant volume (329.15 K, 7689 kPa): 201.66 ± 9 J/K/mol
molar heat capacity at constant volume (329.15 K, 29973 kPa): 201.66 ± 9 J/K/mol
molar heat capacity at constant volume (329.15 K, 29975 kPa): 200.25 ± 9 J/K/mol
molar heat capacity at constant volume (330.15 K, 8385 kPa): 206.66 ± 9.4 J/K/mol
molar heat capacity at constant volume (330.15 K, 8394 kPa): 203.66 ± 9.2 J/K/mol
molar heat capacity at constant volume (331.15 K, 9091 kPa): 203.86 ± 9.2 J/K/mol
molar heat capacity at constant volume (331.15 K, 9099 kPa): 203.26 ± 9.2 J/K/mol
molar heat capacity at constant volume (332.15 K, 9796 kPa): 205.26 ± 9.2 J/K/mol
molar heat capacity at constant volume (332.15 K, 9803 kPa): 203.46 ± 9.2 J/K/mol
molar heat capacity at constant volume (333.15 K, 10500 kPa): 204.86 ± 9.2 J/K/mol
molar heat capacity at constant volume (333.15 K, 10506 kPa): 204.26 ± 9.2 J/K/mol
molar heat capacity at constant volume (334.15 K, 11204 kPa): 205.86 ± 9.2 J/K/mol
molar heat capacity at constant volume (334.15 K, 11209 kPa): 204.66 ± 9.2 J/K/mol
molar heat capacity at constant volume (335.15 K, 11908 kPa): 206.26 ± 9.2 J/K/mol
molar heat capacity at constant volume (335.15 K, 11912 kPa): 205.06 ± 9.2 J/K/mol
molar heat capacity at constant volume (336.15 K, 12610 kPa): 205.26 ± 9.2 J/K/mol
molar heat capacity at constant volume (336.15 K, 12614 kPa): 204.26 ± 9.2 J/K/mol
molar heat capacity at constant volume (337.15 K, 13313 kPa): 208.46 ± 9.4 J/K/mol
molar heat capacity at constant volume (337.15 K, 13315 kPa): 206.66 ± 9.4 J/K/mol
molar heat capacity at constant volume (338.15 K, 14014 kPa): 204.26 ± 9.2 J/K/mol
molar heat capacity at constant volume (338.15 K, 14016 kPa): 204.66 ± 9.2 J/K/mol
molar heat capacity at constant volume (339.15 K, 14714 kPa): 208.46 ± 9.4 J/K/mol
molar heat capacity at constant volume (339.15 K, 14716 kPa): 206.06 ± 9.2 J/K/mol
molar heat capacity at constant volume (340.15 K, 15413 kPa): 207.06 ± 9.4 J/K/mol
molar heat capacity at constant volume (340.15 K, 15416 kPa): 206.86 ± 9.4 J/K/mol
molar heat capacity at constant volume (341.15 K, 16111 kPa): 207.06 ± 9.4 J/K/mol
molar heat capacity at constant volume (341.15 K, 16114 kPa): 208.06 ± 9.4 J/K/mol
